These results are taken from EP1151753B1, “PREVENTIVE AND THERAPEUTIC AGENTS FOR ARTERIOSCLEROSIS” (CCI CORPORATION, priority 1999, dated 2000).

Series [1] concerns cholesterol-loaded rabbits. The series is described as follows: Evaluation of morbid alteration of aorta (Sudan dyeing), cholesterol-loaded rabbit model. It is filed as in vivo, New Zealand White (NZW) type rabbits. The following applies: cholesterol-loaded NZW rabbits. From the text: (§1) In the test, female and male New Zealand White (NZW) type rabbits (SPF: Kitayama Labels K.K.) which were seven weeks old at the time of arrival at the laboratory were subjected to quarantine and two weeks' domestication and visually inspected as to the general condition and, after the absence of abnormality was confirmed, put to use. The body weights at the time of starting administration (at the age of nine weeks) were in the range of 1.8 - 2.2 kg in the case of male rabbits and in the range of 1.6 - 2.0 kg in the case of female rabbits. Throughout the entire duration of the test, the animals were raised as accommodated one each in hanger cages of aluminum installed on a stainless steel rack inside a clean feeding chamber set at a temperature in the range of 20 - 26°, a relative humidity in the range of 40 - 70%, a number of ventilations in the range of 10 - 20 turns/hour, and an illumination time within the range of 12 hours (7.00 - 19:00). They were fed on a commercially available radioactively sterilized solid feed (a product containing 1% of cholesterol, made by Oriental Kobo K.K. and sold under the product code of "RC4") and they were left freely drinking the tap water delivered by an automatic water supplying device.
The dosage of TMG was set at 800 mg/head/day. The TMG was solved in reagent grade ethanol. […]

Series [2] in a line: Lipoprotein analysis, cholesterol-loaded rabbit model. It is filed as in vivo, New Zealand White (NZW) type rabbits. To be noted: cholesterol-loaded NZW rabbits.
Source text: as §1
The dosage of TMG was set at 800 mg/head/day. The TMG was solved in reagent grade ethanol. The produced solution was sprayed on the 1% cholesterol-containing feed and the wet feed was left drying in the air. A mixed feed was prepared so as to contain 800 mg of TMG per 100 g of the feed. The mixed feed was given to the rabbits every morning at a rate of 100 g/day per head for 12 weeks for the sake of attaining oral consumption of the TMG. The feed for the control group was obtained by spraying ethanol alone on a feed containing 1% cholesterol and air-drying the wet feed. It was given to the rabbits of the control group at a rate of 100 g/day per heat for 12 weeks. […]
About 10 ml of blood was taken from the heart or the auricular artery of a rabbit experiencing 12 hours' fast prior to the start of the administration and on the 6th and 12th weeks of administration. […] The blood serum was ultracentrifuged by Hatch and Lees method (Hatch, F. T., and Lees, R. S. (1968) Advan, Lipid Res. 6, 1-68) using a centrifuge (the rotor; Beckman 70.1 Ti) made by Beckman and sold under the product code of "L-70") to separate low specific gravity lipoprotein (1.006 < d < 1.063), with the cholesterol amount of the LDL fraction determined by the cholesterol oxidase DASO method and the amount of HDL-cholesterol determined by subjecting the blood serum to the phospho-tungstic acid magnesium salt precipitation method. The amount of TMG was determined by the HPLC method.

Where [3] appears, read: TMG 800 mg/head/day for 12 weeks.
Where [4] appears, read: TMG 800 mg/head/day in feed, 12th week of administration, average ± SE.

Turning to `Cc1c(C)c2c(c(C)c1O)CCC(C)(C[C@H]1O[C@H](CO)[C@@H](O)[C@H](O)[C@H]1O)O2` (stereo partly drawn) [TMG, 2-(α-D-glucopyranosyl)methyl-2,5,7,8-tetramethyl chroman-6-ol], the “Surface involvement (%)” value in series [1] (area occupied by deposited lipid in whole area of aorta, TMG 800 mg/head/day in feed, 12th week, control 79.7 ± 3.2, p < 0.01) was 50.2 ± 5.7 %. Moreover, in series [1] (setting [3]), the “occurrence of the atherosclerosis” value is listed as “significantly repressing”. For the same compound, the LDL-TMG entry in series [2] (amount of TMG in LDL fraction by HPLC, TMG 800 mg/head/day in feed, 12th week of administration) is given as “not detected”. Further, the “activity of lowering the HDL-cholesterol” value in series [2] (setting [3]) is reported as “no activity”. Moreover, in series [2] (setting [4]), the HDL-CHO came to 33 ± 5 mg/dL and the LDL-CHO stood at 620 ± 34 mg/dL.
